Laboratory results as given in patent US20220296583A1, “COMPOSITIONS AND METHODS FOR TREATMENT OF OVARIAN AND BREAST CANCER” (Board of Regents, The University of Texas System, priority 2021, published 2022).
“Also recorded” adds a separate entry of the source.

How the values were obtained:
[1] = tested on: SKOv3, OVCAR8, HCC5032, or MDA-MB-231 cells; assay: DNA damage: γ-H2AX staining and comet assay with olaparib; assay type: cell-based; conditions: SKOv3, OVCAR8, HCC5032, MDA-MB-231
Description: Cells were trypsinized and resuspended at 2×10^5/mL in cold PBS without Ca^2+ and Mg^2+. Cells were mixed with pre-warmed comet agarose at 1:10 (v/v) ratio. 10 uL of cell agarose mixture was plated onto comet slides pre-coated with 75 uL of agarose and chilled at 4° C. for 15 min to set. Cells were lysed in 25 mL of Lysis buffer at 4° C. for 2 hrs and washed with alkaline solution (pH 10). Comet slides were electrophoresed in cold alkaline solution at 20V for 15 min. Slides were rinsed with water and dried in 70% ethanol for 5 min. Slides were then stained with Vista Green DNA dye and viewed using an Olympus epifluorescence microscope with a FITC filter. Images were captured using a 20× objective. […] Experiments were run in triplicate and Olive Tail Moment was measured using CaspLab1.2.3β2 software (CaspLab.com). Olive Tail Moment=Tail DNA %×Tail Length. 50-200 Cells were measured for each treatment and experiments were repeated twice independently to ensure reproducibility.
Cells on 22×22 mm coverslips were fixed in 4% formaldehyde in PBS (Thermo Fisher, J19943-K2) and permeabilized with 0.1% Triton X-100 (Sigma, X100) in PBS for 15 min. Cells were blocked with 5% BSA in PBS for 30 min and then stained with antibody overnight at 4° C., followed by secondary antibody and DAPI for 1 hr. […] After 24-hrs incubation, cells were fixed in 4% formaldehyde in PBS. Cells were stained as described above. […] DNA damage visualized by γ-H2AX staining was evaluated by counting nuclear γ-H2AX puncta in each cell. […] After 8 hrs incubation, cells were fixed in 4% formaldehyde in PBS. Cells were stained as described above. Images were captured using an Olympus IX71 microscope and nuclear γ-H2AX puncta in each cells were counted using with Olympus CellSens Dimension software. HDAC5 (CST20458) and γ-H2AX (CST2577) antibodies were purchased from Cell Signaling Technology. Experiments were repeated twice independently to ensure reproducibility and 50-200 cells were counted for each treatment.

[2] = tested on: HDAC4 (Ser246)/HDAC5 (Ser256)/HDAC7 (Ser155); assay: Western analysis of HDAC4/5/7 phosphorylation; assay type: cell-based; conditions: 4 μM, 24 hrs; nearly all the cell lines tested
Description: To identify the mechanism(s) by which SIK2 inhibition decreases DNA DBS repair, it was tested whether SIK2 inhibitors decrease the phosphorylation of class IIa HDACs, which control its nuclear cytoplasmic shuttling and consequently its association with DNA. […] Next, it was investigated whether SIK2 inhibitors increase nuclear localization of HDAC5. SIK2 inhibition increased nuclear localization of HDAC5 judged by increasing nuclear florescence intensity (FIG. 7B and FIG. 8A) and the nuclear fraction of HDAC5 expression (FIG. 8B). […] Therefore, it was hypothesized that SIK2 inhibition may block MEF transcription factor activity. […] Next, it was examined whether SIK2 regulation of MEF2 activity was HDAC4/5-dependent, increasing its binding to MEF2D protein. […] These observations are consistent with the hypothesis that SIK2 inhibition increases nuclear localization of HDAC4/5, blocking MEF2 transcription (FIG. 8E).
Cells were incubated with and without treatment for the intervals indicated and then cells were incubated in lysis buffer (50 mM Hepes, pH 7.0, 150 mM NaCl, 1.5 mM MgCl2, 1 mM EGTA, 10, 10% glycerol, 1% Triton X-100, 50 mM NaF, 1 mM Na3VO4 1 mM PMSF, 10 μg/mL leupeptin and10 μg/mL aprotinin) on ice for 30 min. […] The protein concentration was assessed using a bicinchoninic acid (BCA) protein assay (Thermo Scientific, 23228). […]

[3] = Pre-clinical toxicology studies; assay type: in vivo
[4] = tested on: MDA-MB-231 orthotopic xenografts; assay: MDA-MB-231 orthotopic xenografts; assay type: in vivo, mice
Description: To evaluate additive or synergistic interactions, a combination Index (CI value) was calculated with CalcuSyn software.

[5] = tested on: OVCAR8, SKOv3, OC316, MDA4772 and ES2 ovarian cancer cell lines; assay: Clonogenic survival assay, Compound B and carboplatin; assay type: cell-based; conditions: 12-14 days; five cell lines
Description: Cell viability was measured with a bioluminescence assay as described in the Examples, and IC50 values were calculated. (B) Sensitivity to carboplatin. Eight ovarian cancer cell lines were treated as above with different concentrations of carboplatin as indicated. […] The drug concentration ratio is indicated in each plot. The combination index at 50% growth inhibition was calculated using CalcuSyn software. (E) Effect of SIK2 knockout on the carboplatin dose response curve. Cells were treated with different concentrations of carboplatin as indicated. IC50 values for (A-C, E) were calculated by GraphPad Prism 8. […] Four hundred OVCAR8 or SKOv3 ovarian cancer cells were seeded in 6-well plates in culture medium for 24 h. […] The graphs indicate the mean colony formation numbers with standard deviations.
Cancer cells were seeded in 6-well plates at a density of 400 cells per well in culture medium for 24 h to permit cell adherence. […] After control colonies had grown to include at least 50 cells, cultures were fixed and stained with Coomassie blue (0.1% Coomassie brilliant blue R-250, 40% methanol, and 10% acetic acid) and counted. Colonies were counted from three independent experiments and the mean number of colonies and standard deviations calculated. Multiplicity adjusted p values for each treatment and control were determined.

[6] = tested on: OVCAR8, SKOv3, and OC316 ovarian cancer cell lines; assay: Annexin V/PI apoptosis, Compound B and carboplatin; assay type: cell-based; conditions: 72 h; flow cytometry
Description: Cells were dislodged and stained with Annexin V antibody and PI dye for flow cytometry. Representative images are shown on the left and the analysis of apoptotic population under different treatment conditions are on the right. (B) Effect of SIK2 knockout on carboplatin-induced apoptosis. SIK2 knockout (KO) and control cell lines were treated as in (A) and analyzed for apoptosis. The bars indicate the mean percentage of apoptotic cells with standard deviations.
After completion of incubation, cells were harvested and washed with PBS two times. After washing, cells were re-suspended in 100 μL Annexin-binding buffer containing propidium iodide (PI) and FITC Annexin-V (Invitrogen) and incubated at ambient temperature for 15 min in the dark. After incubation, 200 μL of Annexin-binding buffer was added and stained cells were analyzed using a Beckman Coulter's Gallios Flow Cytometer.
(§1) Many current cancer chemotherapies, including platinum-based drugs, exert their antitumor effect by triggering apoptosis in cancer cells. […] The inhibitor of apoptosis protein family (IAPs) includes an important group of proteins involved in the regulation of apoptosis. One member of this protein family, survivin, plays an important role in promoting tumor progression by deregulating apoptosis and cell division.

survivin = assay: Survivin expression by western blot; assay type: cell-based; conditions: OC316 and OVCAR8; 48 h
Description: Cell lysates were collected and survivin expression was measured by western blot analysis. The experiments were performed three times individually. Densitometry values were determined by Image J shareware (NIH) and normalized to the GAPDH loading control. The values relative to the untreated group were plotted at the bottom.
Cells were incubated for 24-48 h with and without treatments and then harvested for western blot analysis. Briefly, cells were incubated in lysis buffer for 20 min on ice and centrifuged at 17,000×g for 10 min at 4° C. Protein concentration of cell lysates was determined with BCA reagent (Thermo Fisher Scientific, Houston, Tex., USA). Lysates were separated on 8-16% SDS-PAGE and transferred to polyvinylidene difluoride (PVDF) membranes. Immunoblots were probed with anti-survivin antibody (Novus; 1:2000, Centennial CO, USA) in 5% BSA overnight at 4° C. and HRP labeled secondary antibody was added for 1 h at RT. The signal was developed on X-ray films.
as §1

SIK1 = SIK1 (Homo sapiens, UniProt P57059); assay: SIK isoform dose response; assay type: biochemical
[7] = tested on: OVCAR8, SKOv3, and OC316 ovarian cancer cell lines; assay: γ-H2AX punctae and comet assay, Compound B and carboplatin; conditions: 24 h
Description: (B) Cells were treated as described in (A) for 24 h. Then cells were dislodged, immobilized in agarose gel onto glass slide, and lysed. DNA was electrophoresed in alkaline buffer and stained by Vista Green. Olive tail moment (OTL) was measured as described in the Examples. Each plot depicts the mean of OTL (the bars indicate the standard deviation).
The OxiSelect™ Comet Assay Kit (Cell Biolabs, Inc., San Diego, Calif., USA) was used to evaluate DNA damage with or without drug treatment. […] Slides were electrophoresed in alkaline buffer at 1 volt/cm for 30 min. The cells were stained with 1× Vista Green DNA Dye for 15 min at RT and then viewed with a 4× fluorescence microscope. The percentage of DNA in the tail were analyzed with Casplab_1.2.3b2 (CaspLab Comet Assay Software, CASPLab, casplab.com). At least 50 randomly selected cells were analyzed per sample.

SIK1, sequence (P57059 whole entry, canonical isoform): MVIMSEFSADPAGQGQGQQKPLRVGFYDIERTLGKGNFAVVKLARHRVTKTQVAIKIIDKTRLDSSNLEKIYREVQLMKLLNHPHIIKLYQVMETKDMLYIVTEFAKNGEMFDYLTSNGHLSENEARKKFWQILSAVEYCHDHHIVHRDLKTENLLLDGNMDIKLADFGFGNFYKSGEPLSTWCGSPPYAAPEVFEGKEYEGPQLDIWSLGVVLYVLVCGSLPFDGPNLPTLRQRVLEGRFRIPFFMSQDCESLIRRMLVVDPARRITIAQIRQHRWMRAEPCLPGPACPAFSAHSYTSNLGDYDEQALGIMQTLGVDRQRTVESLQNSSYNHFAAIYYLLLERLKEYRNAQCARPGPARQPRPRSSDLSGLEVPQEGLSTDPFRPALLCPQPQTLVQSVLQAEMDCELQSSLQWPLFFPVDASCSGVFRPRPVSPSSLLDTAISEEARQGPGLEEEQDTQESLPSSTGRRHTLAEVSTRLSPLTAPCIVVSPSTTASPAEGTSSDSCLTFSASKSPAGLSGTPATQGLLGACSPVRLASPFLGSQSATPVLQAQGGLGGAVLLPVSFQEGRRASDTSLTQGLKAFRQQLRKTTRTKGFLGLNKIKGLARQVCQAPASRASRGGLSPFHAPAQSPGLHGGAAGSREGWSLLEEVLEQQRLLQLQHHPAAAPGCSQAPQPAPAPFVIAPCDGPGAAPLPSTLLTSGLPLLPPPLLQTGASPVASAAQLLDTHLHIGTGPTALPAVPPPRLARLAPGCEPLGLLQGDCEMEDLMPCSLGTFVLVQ

With `COc1c(F)cc(F)cc1-c1c[nH]c2ncc(-c3cnn(C4CCN(S(C)(=O)=O)CC4)c3)cc12` [Compound B, 3-(3,5-difluoro-2-methoxyphenyl)-5-(1-(1-(methylsulfonyl)piperidin-4-yl)-1H-pyrazol-4-yl)-1H-pyrrolo[2,3-b]pyridine] the “levels of γ-H2AX and tailed DNA” value [1] was “modestly increased”, the “phosphorylation of HDAC4/HDAC5/HDAC7” value [2] was “significantly decreased” and the “hematologic / hematopoietic toxicity” value [3] was “minimal hematologic toxicity; also recorded: little effect on normal hematopoietic or organ function; also recorded: little or no hematopoietic toxicity”. For the same compound, the “xenograft growth and survival” value [4] was “inhibited xenograft growth and prolonged the survival”, the clonogenic survival [5] was “significantly enhanced carboplatin induced loss of clonogenic survival” and the apoptosis [6] was “induced apoptosis as a single agent, but also enhanced carboplatin-induced apoptosis”. For the same compound, the survivin expression (survivin) was “downregulation of survivin”, the IC50 (SIK1) was 351 nM and the “comet tail moment induced with carboplatin” value [7] was “further enhanced”.
